For one assay, the system named is HCV replicon genotype 1a. Briefly: Cell-based HCV replicon assay (TaqMan-based), genotype 1a. As to conditions: Hepatitis C virus, 72 h, HCV replicon cells, replicon RNA by real time PCR (TaqMan) on day 3. The method, then:
(§1) Measurement of inhibition by compounds was performed using the HCV replicon system. Several different replicons encoding different HCV genotypes or mutations were used. In addition, potency measurements were made using different formats of the replicon assay, including different ways of measurements and different plating formats. See Jan M. Vrolijk et al., A replicons-based bioassay for the measurement of interferons in patients with chronic hepatitis C, 110 J. VIROLOGICAL METHODS 201 (2003); Steven S. Carroll et al., Inhibition of Hepatitis C Virus RNA Replication by 2′-Modified Nucleoside Analogs, 278(14) J. BIOLOGICAL CHEMISTRY 11979 (2003). However, the underlying principles are common to all of these determinations, and are outlined below.
(§2) TaqMan®-Based Assay Protocol: Compounds 1, 2 and 3 were assayed for cell-based anti-HCV activity by the following protocol. Replicon cells were seeded at 5000 cells/well in 96-well collagen I-coated Nunc plates in the presence of the test compound. Various concentrations of test compound, typically in 10 serial 2-fold dilutions, were added to the assay mixture, with the starting concentration ranging from 250 μM to 1 μM. The final concentration of DMSO was 0.5%, fetal bovine serum was 5%, in the assay media. Cells were harvested on day 3 by the addition of 1× cell lysis buffer (Ambion cat #8721). The replicon RNA level was measured using real time PCR (TaqMan® assay). The amplicon was located in 5B. The PCR primers were: 5B.2F, ATGGACAGGCGCCCTGA (SEQ. ID NO. 1); 5B.2R, […] (SEQ. ID NO. 2); the probe sequence was FAM-labeled CACGCCATGCGCTGCGG (SEQ. ID NO. 3). GAPDH RNA was used as endogenous control and was amplified in the same reaction as NS5B (multiplex PCR) using primers and VIC-labeled probe recommended by the manufacturer (PE Applied Biosystem). […] Alternatively, to quantitate the absolute amount of replicon RNA, a standard curve was established by including serially diluted T7 transcripts of replicon RNA in the Taqman assay. […]
In general terms: A replicon is a self-replicating genome or part of one, used to study replication in cells.

Another assay relates to HCV replicon genotype 1b. Briefly: Cell-based HCV replicon assay (TaqMan-based), genotype 1b. The settings on record: Hepatitis C virus, 72 h, HCV replicon cells, replicon RNA by real time PCR (TaqMan) on day 3. The method, then:
as §1, §2

Another assay concerns HCV replicon genotype 2a. Briefly: Cell-based HCV replicon assay (TaqMan-based), genotype 2a. As to conditions: Hepatitis C virus, 72 h, HCV replicon cells, replicon RNA by real time PCR (TaqMan) on day 3. As for the experimental part: as §1, §2
Another assay relates to HCV replicon genotype 3a. Briefly: Cell-based HCV replicon assay (TaqMan-based), genotype 3a. As to conditions: Hepatitis C virus, 72 h, read-out: Genotype EC50 (nM) 3a. As for the experimental part: as §1, §2

`COC(=O)N[C@H](C(=O)N1C(c2ncc(-c3ccc4c(c3)-c3ccc(-c5cnc([C@@H]6[C@H]7CC[C@H](C7)N6C(=O)[C@@H](NC(=O)OC)C(C)C)[nH]5)cc3-4)[nH]2)[C@H]2CC[C@@H]1C2)C(C)C` (stereo partly drawn) [Compound 2]: the EC50 with HCV replicon genotype 1a is 0.52 nM; in the assay with HCV replicon genotype 1b, 0.005 nM; in the assay on HCV replicon genotype 2a, under 0.019 nM; with HCV replicon genotype 3a it was under 0.19 nM.

For `COC(=O)N[C@H](C(=O)N1CC(F)(F)C[C@H]1c1ncc(-c2ccc3c(c2)-c2ccc(-c4cnc([C@@H]5CC(F)(F)CN5C(=O)[C@@H](NC(=O)OC)C(C)C)[nH]4)cc2-3)[nH]1)C(C)C` [Compound 3], the EC50 is 0.05 nM in the assay on HCV replicon genotype 1a, 0.003 nM in the assay with HCV replicon genotype 1b, under 0.019 nM in the assay on HCV replicon genotype 2a and 0.022 nM in the assay on HCV replicon genotype 3a.

Take `COC(=O)N[C@H](C(=O)N1CCC[C@H]1c1ncc(-c2ccc3c(c2)-c2ccc(-c4cnc([C@@H]5CCCN5C(=O)[C@@H](NC(=O)OC)C(C)C)[nH]4)cc2-3)[nH]1)C(C)C` [Compound 1]: the EC50 with HCV replicon genotype 1a is 0.03 nM; in the assay on HCV replicon genotype 1b it was 0.007 nM; in the assay with HCV replicon genotype 2a, under 0.019 nM; in the assay with HCV replicon genotype 3a, under 0.19 nM.

By EC50 is commonly meant the concentration giving half of the maximal effect.

(Values after US20140377223A1, “SUBSTITUTED B[…] AND METHODS OF USE THEREOF FOR THE TREATMENT OF VIRAL DISEASES” (priority 2010, published 2014).)
